Calls of active or inactive are those of the source. No cut-off for these calls is given here.
test system: Mammalian orthoreovirus 1; assay: Antiviral activity against Reovirus-1; assay type: functional, organism-based; settings: not given

Row | Structure (SMILES) | Activity
1 | Cc1ccc(Cn2c(=O)ccn(C3C=CC(OC(=O)c4ccccc4)C3)c2=O)cc1 (racemic) | inactive
2 | Cc1cc(C)cc(Cn2c(=O)ccn(C3C=CC(OC(=O)c4ccccc4)C3)c2=O)c1 (racemic) | inactive

target: Human immunodeficiency virus type 1 reverse transcriptase (Human immunodeficiency virus 1, UniProt Q72547, K103N); assay: Inhibition of HIV1 reverse transcriptase K103N mutant expressed in Escherichia coli BL21 (DE3) using [alpha-32P]dATP after 30 mins by liquid scintillation counting; settings: not given

Row | Structure (SMILES) | IC50 [µM]
3 | Cc1ccc(Cn2c(=O)ccn(C3C=CC(OC(=O)c4ccccc4)C3)c2=O)cc1 (racemic) | 55.4
4 | Cc1cc(C)cc(Cn2c(=O)ccn(C3C=CC(OC(=O)c4ccccc4)C3)c2=O)c1 (racemic) | > 50

test system: Feline coronavirus; assay: Antiviral activity against Feline coronavirus; assay type: functional, organism-based; settings: not given

Row | Structure (SMILES) | Activity
5 | Cc1ccc(Cn2c(=O)ccn(C3C=CC(OC(=O)c4ccccc4)C3)c2=O)cc1 (racemic) | inactive
6 | Cc1cc(C)cc(Cn2c(=O)ccn(C3C=CC(OC(=O)c4ccccc4)C3)c2=O)c1 (racemic) | inactive

test system: Influenza A virus H3N2; assay: Antiviral activity against Influenza A virus H3N2; assay type: functional, organism-based; settings: not given

Row | Structure (SMILES) | Activity
7 | Cc1ccc(Cn2c(=O)ccn(C3C=CC(OC(=O)c4ccccc4)C3)c2=O)cc1 (racemic) | inactive
8 | Cc1cc(C)cc(Cn2c(=O)ccn(C3C=CC(OC(=O)c4ccccc4)C3)c2=O)c1 (racemic) | inactive

test system: Vesicular stomatitis virus; assay: Antiviral activity against Vesicular stomatitis virus; assay type: functional, organism-based; settings: not given

Row | Structure (SMILES) | Activity
9 | Cc1ccc(Cn2c(=O)ccn(C3C=CC(OC(=O)c4ccccc4)C3)c2=O)cc1 (racemic) | inactive
10 | Cc1cc(C)cc(Cn2c(=O)ccn(C3C=CC(OC(=O)c4ccccc4)C3)c2=O)c1 (racemic) | inactive

target: Human immunodeficiency virus type 1 reverse transcriptase (Human immunodeficiency virus 1) (UniProt Q72547); assay: (§1) Inhibition of HIV1 wild type reverse transcriptase expressed in Escherichia coli BL21 (DE3) using [alpha-32P]dATP after 30 mins by liquid scintillation counting; settings: not given

Row | Structure (SMILES) | inhibition
11 | Cc1cc(C)cc(Cn2c(=O)ccn(C3C=CC(OC(=O)c4ccccc4)C3)c2=O)c1 (racemic) | Dose-dependent effect

target: Human immunodeficiency virus type 1 reverse transcriptase (Human immunodeficiency virus 1, UniProt Q72547); assay: as §1; settings: not given

Row | Structure (SMILES) | IC50 [µM]
12 | Cc1ccc(Cn2c(=O)ccn(C3C=CC(OC(=O)c4ccccc4)C3)c2=O)cc1 (racemic) | 18.7
13 | Cc1cc(C)cc(Cn2c(=O)ccn(C3C=CC(OC(=O)c4ccccc4)C3)c2=O)c1 (racemic) | > 50

target: Human immunodeficiency virus type 1 reverse transcriptase (Human immunodeficiency virus 1, UniProt Q72547, V106A); assay: Inhibition of HIV1 reverse transcriptase V106A mutant expressed in Escherichia coli BL21 (DE3) using [alpha-32P]dATP after 30 mins by liquid scintillation counting; settings: not given

Row | Structure (SMILES) | IC50 [µM]
14 | Cc1ccc(Cn2c(=O)ccn(C3C=CC(OC(=O)c4ccccc4)C3)c2=O)cc1 (racemic) | > 50
15 | Cc1cc(C)cc(Cn2c(=O)ccn(C3C=CC(OC(=O)c4ccccc4)C3)c2=O)c1 (racemic) | > 50

test system: Human alphaherpesvirus 1; assay: Antiviral activity against Herpes simplex virus-1 KOS; assay type: functional, organism-based; settings: not given

Row | Structure (SMILES) | Activity
16 | Cc1ccc(Cn2c(=O)ccn(C3C=CC(OC(=O)c4ccccc4)C3)c2=O)cc1 (racemic) | inactive
17 | Cc1cc(C)cc(Cn2c(=O)ccn(C3C=CC(OC(=O)c4ccccc4)C3)c2=O)c1 (racemic) | inactive

test system: Vaccinia virus; assay: Antiviral activity against Vaccinia virus; assay type: functional, organism-based; settings: Orthopoxvirus vaccinia

Row | Structure (SMILES) | Activity
18 | Cc1ccc(Cn2c(=O)ccn(C3C=CC(OC(=O)c4ccccc4)C3)c2=O)cc1 (racemic) | inactive
19 | Cc1cc(C)cc(Cn2c(=O)ccn(C3C=CC(OC(=O)c4ccccc4)C3)c2=O)c1 (racemic) | inactive

test system: Coxsackievirus B4; assay: Antiviral activity against Coxsackievirus B4; assay type: functional, organism-based; settings: not given

Row | Structure (SMILES) | Activity
20 | Cc1ccc(Cn2c(=O)ccn(C3C=CC(OC(=O)c4ccccc4)C3)c2=O)cc1 (racemic) | inactive
21 | Cc1cc(C)cc(Cn2c(=O)ccn(C3C=CC(OC(=O)c4ccccc4)C3)c2=O)c1 (racemic) | inactive

test system: Influenza B virus; assay: Antiviral activity against Influenza B virus; assay type: functional, organism-based; settings: not given

Row | Structure (SMILES) | Activity
22 | Cc1ccc(Cn2c(=O)ccn(C3C=CC(OC(=O)c4ccccc4)C3)c2=O)cc1 (racemic) | inactive
23 | Cc1cc(C)cc(Cn2c(=O)ccn(C3C=CC(OC(=O)c4ccccc4)C3)c2=O)c1 (racemic) | inactive

test system: Human immunodeficiency virus 1; assay: Antiviral activity against HIV1 3B infected in human CEM cells assessed as reduction of giant cell formation after 4 days by microscopic analysis; assay type: functional, organism-based; settings: Human immunodeficiency virus 1, 3B, CCRF-CEM, 96 h

Row | Structure (SMILES) | EC50 [µM]
24 | Cc1ccc(Cn2c(=O)ccn(C3C=CC(OC(=O)c4ccccc4)C3)c2=O)cc1 (racemic) | > 10
25 | Cc1cc(C)cc(Cn2c(=O)ccn(C3C=CC(OC(=O)c4ccccc4)C3)c2=O)c1 (racemic) | > 10

test system: Influenza A virus; assay: Antiviral activity against Influenza A virus H1N1; assay type: functional, organism-based; settings: not given

Row | Structure (SMILES) | Activity
26 | Cc1ccc(Cn2c(=O)ccn(C3C=CC(OC(=O)c4ccccc4)C3)c2=O)cc1 (racemic) | inactive
27 | Cc1cc(C)cc(Cn2c(=O)ccn(C3C=CC(OC(=O)c4ccccc4)C3)c2=O)c1 (racemic) | inactive

target: Human immunodeficiency virus type 1 reverse transcriptase (Human immunodeficiency virus 1, UniProt Q72547, Y181C); assay: Inhibition of HIV1 reverse transcriptase Y181C mutant expressed in Escherichia coli BL21 (DE3) using [alpha-32P]dATP after 30 mins by liquid scintillation counting; settings: not given

Row | Structure (SMILES) | IC50 [µM]
28 | Cc1ccc(Cn2c(=O)ccn(C3C=CC(OC(=O)c4ccccc4)C3)c2=O)cc1 (racemic) | > 50
29 | Cc1cc(C)cc(Cn2c(=O)ccn(C3C=CC(OC(=O)c4ccccc4)C3)c2=O)c1 (racemic) | > 50

test system: Punta Toro virus; assay: Antiviral activity against Punta Toro virus; assay type: functional, organism-based; settings: not given

Row | Structure (SMILES) | Activity
30 | Cc1ccc(Cn2c(=O)ccn(C3C=CC(OC(=O)c4ccccc4)C3)c2=O)cc1 (racemic) | inactive
31 | Cc1cc(C)cc(Cn2c(=O)ccn(C3C=CC(OC(=O)c4ccccc4)C3)c2=O)c1 (racemic) | inactive

test system: not listed separately; assay: Solubility of the compound in 10% DMSO up to 50 uM; assay type: physicochemical; settings: not given

Row | Structure (SMILES) | solubility
32 | Cc1cc(C)cc(Cn2c(=O)ccn(C3C=CC(OC(=O)c4ccccc4)C3)c2=O)c1 (racemic) | soluble

target: Human immunodeficiency virus type 1 reverse transcriptase (Human immunodeficiency virus 1, UniProt Q72547, K103N/Y181C); assay: Inhibition of HIV1 reverse transcriptase K103N/Y181C mutant expressed in Escherichia coli BL21 (DE3) using [alpha-32P]dATP after 30 mins by liquid scintillation counting; settings: not given

Row | Structure (SMILES) | IC50 [µM]
33 | Cc1ccc(Cn2c(=O)ccn(C3C=CC(OC(=O)c4ccccc4)C3)c2=O)cc1 (racemic) | > 50
34 | Cc1cc(C)cc(Cn2c(=O)ccn(C3C=CC(OC(=O)c4ccccc4)C3)c2=O)c1 (racemic) | > 50

test system: Human alphaherpesvirus 2; assay: Antiviral activity against Herpes simplex virus-2 G; assay type: functional, organism-based; settings: strain G

Row | Structure (SMILES) | Activity
35 | Cc1ccc(Cn2c(=O)ccn(C3C=CC(OC(=O)c4ccccc4)C3)c2=O)cc1 (racemic) | inactive
36 | Cc1cc(C)cc(Cn2c(=O)ccn(C3C=CC(OC(=O)c4ccccc4)C3)c2=O)c1 (racemic) | inactive

test system: Sindbis virus; assay: Antiviral activity against Sindbis virus; assay type: functional, organism-based; settings: not given

Row | Structure (SMILES) | Activity
37 | Cc1ccc(Cn2c(=O)ccn(C3C=CC(OC(=O)c4ccccc4)C3)c2=O)cc1 (racemic) | inactive
38 | Cc1cc(C)cc(Cn2c(=O)ccn(C3C=CC(OC(=O)c4ccccc4)C3)c2=O)c1 (racemic) | inactive

test system: Respiratory syncytial virus; assay: Antiviral activity against Respiratory syncytial virus; assay type: functional, organism-based; settings: not given

Row | Structure (SMILES) | Activity
39 | Cc1ccc(Cn2c(=O)ccn(C3C=CC(OC(=O)c4ccccc4)C3)c2=O)cc1 (racemic) | inactive
40 | Cc1cc(C)cc(Cn2c(=O)ccn(C3C=CC(OC(=O)c4ccccc4)C3)c2=O)c1 (racemic) | inactive

test system: Human alphaherpesvirus 3; assay: Antiviral activity against Varicella-zoster virus; assay type: functional, organism-based; settings: not given

Row | Structure (SMILES) | Activity
41 | Cc1ccc(Cn2c(=O)ccn(C3C=CC(OC(=O)c4ccccc4)C3)c2=O)cc1 (racemic) | inactive
42 | Cc1cc(C)cc(Cn2c(=O)ccn(C3C=CC(OC(=O)c4ccccc4)C3)c2=O)c1 (racemic) | inactive

test system: not listed separately; assay: Cytotoxicity against human CEM cells after 3 days; assay type: cell-based; settings: CEM cells (CCRF-CEM)

Row | Structure (SMILES) | CC50 at 72 h [µM]
43 | Cc1ccc(Cn2c(=O)ccn(C3C=CC(OC(=O)c4ccccc4)C3)c2=O)cc1 (racemic) | > 25
44 | Cc1cc(C)cc(Cn2c(=O)ccn(C3C=CC(OC(=O)c4ccccc4)C3)c2=O)c1 (racemic) | 40

test system: Human respirovirus 3; assay: Antiviral activity against Parainfluenza virus 3; assay type: functional, organism-based; settings: not given

Row | Structure (SMILES) | Activity
45 | Cc1ccc(Cn2c(=O)ccn(C3C=CC(OC(=O)c4ccccc4)C3)c2=O)cc1 (racemic) | inactive
46 | Cc1cc(C)cc(Cn2c(=O)ccn(C3C=CC(OC(=O)c4ccccc4)C3)c2=O)c1 (racemic) | inactive

target: Human immunodeficiency virus type 1 reverse transcriptase (Human immunodeficiency virus 1, UniProt Q72547, L100I); assay: Inhibition of HIV1 reverse transcriptase L100I mutant expressed in Escherichia coli BL21 (DE3) using [alpha-32P]dATP after 30 mins by liquid scintillation counting; settings: not given

Row | Structure (SMILES) | IC50 [µM]
47 | Cc1ccc(Cn2c(=O)ccn(C3C=CC(OC(=O)c4ccccc4)C3)c2=O)cc1 (racemic) | 2.4
48 | Cc1cc(C)cc(Cn2c(=O)ccn(C3C=CC(OC(=O)c4ccccc4)C3)c2=O)c1 (racemic) | 11.1

target: Human immunodeficiency virus type 1 reverse transcriptase (Human immunodeficiency virus 1, UniProt Q72547, G190A); assay: Inhibition of HIV1 reverse transcriptase G190A mutant expressed in Escherichia coli BL21 (DE3) using [alpha-32P]dATP after 30 mins by liquid scintillation counting; settings: not given

Row | Structure (SMILES) | IC50 [µM]
49 | Cc1ccc(Cn2c(=O)ccn(C3C=CC(OC(=O)c4ccccc4)C3)c2=O)cc1 (racemic) | > 50
50 | Cc1cc(C)cc(Cn2c(=O)ccn(C3C=CC(OC(=O)c4ccccc4)C3)c2=O)c1 (racemic) | > 50

test system: Human immunodeficiency virus 1; assay: Ratio of IC50 for HIV1 wild type reverse transcriptase to IC50 for HIV1 reverse transcriptase L100I mutant; settings: not given

Row | Structure (SMILES) | Ratio IC50
51 | Cc1cc(C)cc(Cn2c(=O)ccn(C3C=CC(OC(=O)c4ccccc4)C3)c2=O)c1 (racemic) | 10
